Results from the Deep4Chem optical property database.
Values joined by “and” are separate entries in the source; they are usually repeats but may differ in a detail not shown here. Equal entries are not always repeated.

Experiment: photoluminescence quantum yield (fraction); solvent given as SMILES
[1] = in O=P(c1ccccc1)(c1ccccc1)c1ccccc1Oc1ccccc1P(=O)(c1ccccc1)c1ccccc1

Work on COc1ccc(C#Cc2nc3ccccc3nc2-c2cn(C)c3ccccc23)cc1 yielded a photoluminescence quantum yield (in C1CCOC1) of 0.19, a photoluminescence quantum yield (in CC#N) of 0.13 and a photoluminescence quantum yield (in CC(C)=O) of 0.16. The photoluminescence quantum yield (in CC(C)O) was 0.02, the photoluminescence quantum yield (in CCO) was 0.01 and the photoluminescence quantum yield (in CCOC(C)=O) was 0.17. For the same molecule, the photoluminescence quantum yield (in CO) was 0.01, the photoluminescence quantum yield (in Cc1ccccc1) was 0.3 and the photoluminescence quantum yield (in ClCCl) was 0.19.

Work on COc1ccc(-n2nc(C(=O)N3CCCC3)c(N3CCCC3)n2)cc1 yielded a photoluminescence quantum yield (in CC#N) of 0.555, a photoluminescence quantum yield (in CCCCCC) of 0.94 and a photoluminescence quantum yield (in CCO) of 0.9. The photoluminescence quantum yield (in CN(C)C=O) was 0.77 and the photoluminescence quantum yield (in ClC(Cl)Cl) was 0.64.

F[B-]1(F)OC(c2ccc(N3CCCCC3)cc2)=Cc2cccc[n+]21 showed a photoluminescence quantum yield (in ClC(Cl)Cl) of 0.612.

With N#CC(C#N)=Cc1ccc(-c2ccc(N(c3ccccc3)c3ccccc3)cc2)s1 the photoluminescence quantum yield (in ClC(Cl)Cl) was 0.18.

For CCN(CC)c1ccc2c(-c3ccccc3C(=O)O)c3c([o+]c2c1)/C(=C/c1nc(C)n2ccccc12)CCC3, the photoluminescence quantum yield (in ClCCl) was 0.3.

CC1=C(c2cccs2)C(C)=[N+]2C1=C(c1ccc(OS(=O)(=O)c3ccc([N+](=O)[O-])cc3[N+](=O)[O-])cc1)c1c(C)c(-c3cccs3)c(C)n1[B-]2(F)F showed a photoluminescence quantum yield (in Cc1ccccc1) of 0.059.

c1ccc(-c2nc(-c3ccccc3)nc(-c3ccccc3-n3c4ccccc4c4c5oc6ccccc6c5ccc43)n2)cc1 gave a photoluminescence quantum yield [1] of 0.979.

In the case of Cc1cc(C)c(B(c2cc(-c3ccc(N(C)C)cc3)sc2-c2sc(-c3ccc(N(C)C)cc3)cc2P(=O)(c2ccccc2)c2ccccc2)c2c(C)cc(C)cc2C)c(C)c1, the photoluminescence quantum yield (in CO) is reported as 0.18.

Molecule CCOC(=O)C1=CNC=C(C(=O)OCC)C1c1ccccc1 has a photoluminescence quantum yield (in C1CCOC1) of 0.7 and a photoluminescence quantum yield (in CO) of 0.58.

With COC(=O)c1nc(-c2ccccc2)oc1C the photoluminescence quantum yield (in C1CCCCC1) was 0.36, the photoluminescence quantum yield (in CC#N) was 0.38 and the photoluminescence quantum yield (in CCO) was 0.47. The photoluminescence quantum yield (in CCOC(C)=O) was 0.44 and the photoluminescence quantum yield (in O) was 0.34.

Cc1cc(C)c([B-]2(c3c(C)cc(C)cc3C)[O+]=P(c3ccccc3)(c3ccccc3)c3cc(-c4ccc(C(C)(C)C)cc4)sc3-c3sc(-c4ccc(C(C)(C)C)cc4)cc32)c(C)c1 gave a photoluminescence quantum yield (in C1CCOC1) of 0.16.

Work on CN(C)c1ccc(C2=C3C=C(c4ccc(C=O)cc4)S[C@]34c3ccccc3[C@H]2c2ccccc24)cc1 yielded a photoluminescence quantum yield (in ClCCl) of 0.54.

Molecule c1ccc(N(c2ccccc2)c2ccc(-c3cnc(-c4ccc(N(c5ccccc5)c5ccccc5)cc4)s3)cc2)cc1 has a photoluminescence quantum yield (in CO) of 0.41.

COC(=O)c1[nH]c(-c2ccc(OC)cc2)c2nnc3ccc(OC)cc3c12 gave a photoluminescence quantum yield (in ClCCl) of 0.282.

With COCCOCCOCCOCC(COCCOCCOCCOC)Oc1cc(/C=C/c2ccc(C=C(C#N)C#N)cc2)c(OC(COCCOCCOCCOC)COCCOCCOCCOC)cc1/C=C/c1ccc(C=C(C#N)C#N)cc1 the photoluminescence quantum yield (in ClCCl) was 0.53.

Work on CC[C@H](C)COc1ccc(C2=C3C(C)=CC(C)=[N+]3[B-](F)(F)n3c(C)cc(C)c32)cc1 yielded a photoluminescence quantum yield (in ClCCl) of 0.87.

Work on CCN(CC)c1c2ccc(=[N+]3CCCCC3)cc-2oc2cc(N3CCCCC3)ccc12 yielded a photoluminescence quantum yield (in ClCCl) of 0.11.

In the case of [O-][n+]1c(-c2ccccc2)cc(N2CCOCC2)nc1/C=C/c1ccccc1, the photoluminescence quantum yield (in ClCCl) is reported as 0.2.

In the case of CC(C)(C)n1c(=O)c2cc3ccc4cccc5ccc(c2c1=O)c3c45, the photoluminescence quantum yield (in ClC(Cl)Cl) is reported as 0.41 and 0.408.

For COc1ccc(-c2csc(/C(C#N)=C/c3ccc([N+](=O)[O-])cc3)n2)cc1, the photoluminescence quantum yield (in CC#N) was 0.

In the case of CC1(C)c2ccccc2N(c2ccc(-c3ccc4c(c3)c3cc(-c5ccc(N6c7ccccc7C(C)(C)c7ccccc76)cc5)ccc3c3nc(C#N)c(C#N)nc43)cc2)c2ccccc21, the photoluminescence quantum yield (in Cc1ccccc1) is reported as 0.33 and the photoluminescence quantum yield (in O=P(c1ccccc1)(c1ccccc1)c1cccc(-c2cc(-n3c4ccccc4c4ccccc43)cc(-n3c4ccccc4c4ccccc43)c2)n1) is reported as 0.65.

In the case of CCn1c2ccc(/C=C/c3ccc4c(c3)c3cc(-c5nc6ccccc6s5)ccc3n4CC)cc2c2cc(-c3nc4ccccc4s3)ccc21, the photoluminescence quantum yield (in C1CCOC1) is reported as 0.65, the photoluminescence quantum yield (in CC#N) is reported as 0.26 and the photoluminescence quantum yield (in CCOC(C)=O) is reported as 0.58. For the same molecule, the photoluminescence quantum yield (in CN(C)C=O) was 0.32 and the photoluminescence quantum yield (in ClCCl) was 0.5.

Cc1cc(-c2ccc(N(c3ccccc3)c3ccccc3)cc2)c2nsnc2c1-c1ccc(C(C)(C)C)cc1 gave a photoluminescence quantum yield (in ClCCl) of 0.19.

For CC1(C)C(/C=C/C=C/c2cc3ccc(O)cc3oc2=O)=[N+](CCCS(=O)(=O)[O-])c2ccc(S(=O)(=O)O)cc21, the photoluminescence quantum yield (in CCO) was 0.01, the photoluminescence quantum yield (in CS(C)=O) was 0.017 and the photoluminescence quantum yield (in O) was 0.011.

With COc1ccc(-c2pc3ccccc3s2)cc1 (centres undefined) the photoluminescence quantum yield (in CC#N) was 0.054.

Cc1cc(-c2ccc(-c3ccccc3)cc2)nc(-c2ccc(-n3c4ccccc4c4ccccc43)cc2)n1 gave a photoluminescence quantum yield (in C1CCOC1) of 0.22, a photoluminescence quantum yield (in CN(C)C=O) of 0.24 and a photoluminescence quantum yield (in Cc1ccccc1) of 0.24. For the same molecule, the photoluminescence quantum yield (in ClC(Cl)Cl) was 0.43.

In the case of COc1ccc2c(c1)N(c1ccccc1-c1ccccc1)c1cc3c(cc1=N2)Oc1c(cc(C(C)(C)C)cc1C(C)(C)C)N=3, the photoluminescence quantum yield (in CCCCCC) is reported as 0.34.

For CCCCCCN1C(=O)c2cccc3c(-c4ccc([N+](=O)[O-])s4)ccc(c23)C1=O, the photoluminescence quantum yield (in ClC(Cl)Cl) was 0.

Nc1nc2ccccc2[n+]([O-])n1 showed a photoluminescence quantum yield (in CC#N) of 0.169 and a photoluminescence quantum yield (in O) of 0.0367.

CC1=C(C#Cc2ccccc2)C(C)=[N+]2C1=C(c1ccccc1)c1c(C)c(C#Cc3ccccc3)c(C)n1[B-]2(F)F gave a photoluminescence quantum yield (in C1CCOC1) of 0.6 and a photoluminescence quantum yield (in ClCCl) of 0.82.

CCCCCCc1ccc(-n2c3c4cccc(OC)c4nc(-c4ccc(C#N)cc4)c3c3c2c2c(-c4ccc(C#N)cc4)nc4c(OC)cccc4c2n3-c2ccc(CCCCCC)cc2)cc1 showed a photoluminescence quantum yield (in ClC(Cl)Cl) of 0.13.

With N#Cc1nc(N(Cc2ccc(F)cc2)Cc2ccc(F)cc2)c(C#N)nc1N(Cc1ccc(F)cc1)Cc1ccc(F)cc1 the photoluminescence quantum yield (in ClC(Cl)Cl) was 0.76.

Molecule O=S(=O)(c1cccc(-n2c3ccccc3c3ccccc32)c1)c1cccc(-n2c3ccccc3c3ccccc32)c1 has a photoluminescence quantum yield (in CCCCC(CC)n1c2ccc(-n3c4ccccc4c4ccccc43)cc2c2cc(-n3c4ccccc4c4ccccc43)ccc21) of 0.109 and a photoluminescence quantum yield (in c1cc(-n2c3ccccc3c3ccccc32)cc(-n2c3ccccc3c3ccccc32)c1) of 0.218.

Work on CCCCOc1ccc(-c2cc3c(o2)c(-c2ccc(OCCCC)cc2)c2n3[B-](F)(F)[N+]3=Cc4c(-c5ccc(OCCCC)cc5)c5oc(-c6ccc(OCCCC)cc6)cc5n4[B-](F)(F)[N+]3=C2)cc1 yielded a photoluminescence quantum yield (in C1CCOC1) of 0.44, a photoluminescence quantum yield (in CN(C)C=O) of 0.32 and a photoluminescence quantum yield (in CS(C)=O) of 0.3. The photoluminescence quantum yield (in Cc1ccccc1) was 0.37, the photoluminescence quantum yield (in ClC(Cl)Cl) was 0.41 and the photoluminescence quantum yield (in ClCCl) was 0.4.

In the case of COc1ccc(C2=[O+][B-](F)(F)OC(c3ccc4c(c3)Cc3ccccc3-4)=C2)cc1, the photoluminescence quantum yield (in CC#N) is reported as 0.94.

With N#Cc1c(-n2c3ccc(-c4ccccc4)cc3c3cc(-c4ccccc4)ccc32)c(-n2c3ccccc3c3ccccc32)c(-n2c3ccc(-c4ccccc4)cc3c3cc(-c4ccccc4)ccc32)c(-n2c3ccccc3c3ccccc32)c1-n1c2ccc(-c3ccccc3)cc2c2cc(-c3ccccc3)ccc21 the photoluminescence quantum yield (in Cc1ccccc1) was 0.83.

With c1ccc2cc(-c3cc(-c4nccs4)nc(-c4nccs4)c3)ccc2c1 the photoluminescence quantum yield (in CC#N) was 0.36, the photoluminescence quantum yield (in CCCCCC) was 0.289 and the photoluminescence quantum yield (in CO) was 0.328. It also gave a photoluminescence quantum yield (in ClC(Cl)Cl) of 0.166.

N#C/C(=C\c1ccncc1)c1nc(-c2ccc(Cl)cc2)cs1 showed a photoluminescence quantum yield (in CC#N) of 0.168.

For c1ccc2cc3cc4c(cc3cc2c1)-c1cccc2cccc-4c12, the photoluminescence quantum yield (in CCCCCCC) was 0.58.

For Cc1cc2c(ccc3c(C)[n+](C)c(C)cc32)c(C)[n+]1C, the photoluminescence quantum yield (in CC#N) was 0.29.

COc1cc2c(cc1-c1ccc(Cl)cc1)Cc1c3c(c4c(c1-2)-c1cc(OC)c(-c2ccc(Cl)cc2)cc1C4)C(=O)N(CCC(C)C)C3=O showed a photoluminescence quantum yield (in C1CCOC1) of 0.52.

O=[N+]([O-])c1ccc(S(=O)(=O)Nc2ccc(C#Cc3ccc4ccc5ccc(C#Cc6ccc(NS(=O)(=O)c7ccc([N+](=O)[O-])cc7[N+](=O)[O-])cc6)c6ccc3c4c56)cc2)c([N+](=O)[O-])c1 showed a photoluminescence quantum yield (in CO) of 0.003.

COc1cc2c(cc1-c1ccccc1)Cc1c3c(c4c(c1-2)-c1cc(OC)c(-c2ccccc2)cc1C4)C(=O)N(CCC(C)C)C3=O showed a photoluminescence quantum yield (in C1CCOC1) of 0.53, a photoluminescence quantum yield (in CC#N) of 0.46 and a photoluminescence quantum yield (in CC(C)=O) of 0.38. It also gave a photoluminescence quantum yield (in CCOC(C)=O) of 0.61, a photoluminescence quantum yield (in CS(C)=O) of 0.47 and a photoluminescence quantum yield (in Cc1ccccc1) of 0.48. It also gave a photoluminescence quantum yield (in ClC(Cl)Cl) of 0.64 and a photoluminescence quantum yield (in ClCCl) of 0.63.

CC1(C)c2ccccc2N(c2ccc(C(=O)/C=C(\O)c3ccc(N4c5ccccc5C(C)(C)c5ccccc54)cc3)cc2)c2ccccc21 gave a photoluminescence quantum yield (in c1ccc2c(c1)c1ccccc1n2-c1ccc(-c2ccc(-n3c4ccccc4c4ccccc43)cc2)cc1) of 0.86.

In the case of COc1ccc(/C=C/c2cc(/C=C/c3ccc(OC)cc3)nc(/C=C/c3ccc(OC)cc3)n2)cc1, the photoluminescence quantum yield (in ClCCl) is reported as 0.15.

With CC(C)(C)NC1=CC2=c3cc(NC(C)(C)C)c4nc(C(F)(F)C(F)(F)C(F)(F)F)nc5c(NC(C)(C)C)cc(c3c54)C3=CC(NC(C)(C)C)=C4N=C(C(F)(F)C(F)(F)C(F)(F)F)N=C1C4C32 (centres undefined) the photoluminescence quantum yield (in C1CCOC1) was 0.25.

Molecule COc1ccc2c(-c3nc(-c4ccccc4F)no3)cc(=O)oc2c1 has a photoluminescence quantum yield (in CCO) of 0.57 and a photoluminescence quantum yield (in ClC(Cl)Cl) of 0.25.

Cc1cc(C)c(C2=C3C=C(/C=C/C(=O)OC(C)(C)C)C=[N+]3[B-](F)(F)n3c2ccc3N2CCCC2)c(C)c1 gave a photoluminescence quantum yield (in ClCCl) of 0.57.

With CCN(CC)c1ccc2cc3ccc(=[N+](CC)CC)cc-3oc2c1 the photoluminescence quantum yield (in CC#N) was 0.85, the photoluminescence quantum yield (in CCO) was 0.95 and the photoluminescence quantum yield (in CN(C)C=O) was 0.74. It also gave a photoluminescence quantum yield (in O) of 0.94.

In the case of CCCCN1C(=O)c2c(Br)c(Br)c3c4c(Br)c(Br)c5c6c(c(Br)c(Br)c(c7c(Br)c(Br)c(c2c37)C1=O)c64)C(=O)N(CCCC)C5=O, the photoluminescence quantum yield (in ClC(Cl)Cl) is reported as 0.01.

Work on c1ccc(-c2nc(-c3ccccc3)nc(-c3cccc(-n4c5ccccc5c5c6oc7ccccc7c6ccc54)c3)n2)cc1 yielded a photoluminescence quantum yield [1] of 0.311.

For CCCCC(CC)Cn1c2cc(C#N)ccc2c2ccc(C#Cc3ccc4ccc5cccc6ccc3c4c56)cc21 (centres undefined), the photoluminescence quantum yield (in ClCCl) was 0.59.

In the case of COC(=O)c1ccc(/C=C2\N=C(c3ccccc3)OC2=O)cc1, the photoluminescence quantum yield (in C1COCCO1) is reported as 0.

CCCCCCCCCCCCN1C(=O)c2c(c3ccc4cc(-c5ccccc5)c(OC)cc4c3c3c2ccc2cc(-c4ccccc4)c(OC)cc23)C1=O gave a photoluminescence quantum yield (in ClCCl) of 0.148.

Cn1c(=O)c(/N=N/c2ccc(Nc3ccccc3)c(S(=O)(=O)O)c2)c(O)c2ccccc21 gave a photoluminescence quantum yield (in CS(C)=O) of 0.04.
